From patent publication US8088763B2 (priority 2004, dated 2012)

How the values were obtained:
NA-uptake = NA-uptake (Rattus norvegicus, UniProt Q63380); experiment: biochemical; details: for inhibition at 10 µM: read-out: NA-uptake [10 μM], % inhibition
5HT-uptake = target: T1, 5HT-uptake (Rattus norvegicus, UniProt P31652); experiment: biochemical; details: for inhibition at 10 µM: read-out: 5HT-uptake [10 μM], % inhibition
T1 construct: synaptosomes were freshly isolated from areas of rats' brains
T1 sequence (P31652 whole entry): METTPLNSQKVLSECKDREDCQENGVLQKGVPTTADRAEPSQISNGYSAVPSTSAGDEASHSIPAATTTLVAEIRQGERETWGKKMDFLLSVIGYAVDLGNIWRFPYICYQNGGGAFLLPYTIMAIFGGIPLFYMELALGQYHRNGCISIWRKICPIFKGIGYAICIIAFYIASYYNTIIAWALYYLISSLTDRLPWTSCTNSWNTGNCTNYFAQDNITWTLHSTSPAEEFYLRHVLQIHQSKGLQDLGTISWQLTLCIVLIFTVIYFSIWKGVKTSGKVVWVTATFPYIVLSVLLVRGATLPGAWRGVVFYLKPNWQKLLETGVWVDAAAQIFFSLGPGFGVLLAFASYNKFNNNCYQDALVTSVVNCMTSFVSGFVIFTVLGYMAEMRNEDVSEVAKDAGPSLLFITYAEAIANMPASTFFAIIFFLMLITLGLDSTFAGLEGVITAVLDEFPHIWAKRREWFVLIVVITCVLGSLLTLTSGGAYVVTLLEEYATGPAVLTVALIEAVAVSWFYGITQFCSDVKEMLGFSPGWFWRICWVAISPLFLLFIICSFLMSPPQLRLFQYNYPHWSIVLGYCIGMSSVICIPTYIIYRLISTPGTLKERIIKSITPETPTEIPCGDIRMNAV

Chain of NA-uptake (Q63380 1-617): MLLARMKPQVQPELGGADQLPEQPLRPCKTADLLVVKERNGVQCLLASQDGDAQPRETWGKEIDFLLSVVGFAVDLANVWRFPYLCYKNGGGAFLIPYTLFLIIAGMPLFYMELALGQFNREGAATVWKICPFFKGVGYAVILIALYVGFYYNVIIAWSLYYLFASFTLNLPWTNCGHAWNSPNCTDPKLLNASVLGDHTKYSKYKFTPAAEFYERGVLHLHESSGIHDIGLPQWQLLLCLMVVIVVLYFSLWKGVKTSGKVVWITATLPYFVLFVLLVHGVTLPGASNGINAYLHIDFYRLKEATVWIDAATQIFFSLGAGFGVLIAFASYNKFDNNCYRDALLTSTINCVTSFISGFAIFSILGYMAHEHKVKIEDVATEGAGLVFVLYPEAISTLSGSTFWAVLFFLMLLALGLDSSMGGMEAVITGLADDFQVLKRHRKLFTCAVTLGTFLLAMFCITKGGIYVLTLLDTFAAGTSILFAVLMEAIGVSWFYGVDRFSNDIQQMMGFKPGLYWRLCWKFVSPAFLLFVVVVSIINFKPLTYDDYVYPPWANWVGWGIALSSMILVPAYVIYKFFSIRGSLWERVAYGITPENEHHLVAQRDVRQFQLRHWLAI

Row | Compound | inhibition at 10 µM (NA-uptake) [%] | inhibition at 10 µM (5HT-uptake) [%] | NA-uptake [10 μM], % inhibition (NA-uptake) [%] | 5HT-uptake [10 μM], % inhibition (5HT-uptake) [%]
1 | CC1CCN(C(=O)CCC(=O)NC2CCC(Cc3cccc(Cl)c3)(N(C)C)CC2)CC1 (centres unmarked) [Example 92, N-[4-(3-chloro-benzyl)-4-dimethylamino-cyclohexyl]-4-(4-methyl-piperidin-1-yl)-4-oxo-butyramide] | 89 | 92 | – | –
2 | COc1ccc(CNC(=O)CCC(=O)NC2CCC(Cc3ccc(Cl)cc3)(N(C)C)CC2)c(OC)c1 (centres unmarked) [Example 68, N-[4-(4-chloro-benzyl)-4-dimethylamino-cyclohexyl]-N′-(2,4-dimethoxy-benzyl)-succinamide] | 85 | 98 | – | –
3 | COc1ccc(F)c(CN2CCN(C(=O)CCCC(=O)NC3CCC(Cc4ccccc4)(N(C)C)CC3)CC2)c1 (centres unmarked) [Example 25, 5-[4-(2-fluoro-5-methoxy-benzyl)-piperazin-1-yl]-5-oxo-valeric acid (4-benzyl-4-dimethylamino-cyclohexyl)-amide] | 95 | 97 | – | –
4 | C=CCN(C)C(=O)CCC(=O)NC1CCC(Cc2cccc(Cl)c2)(N(C)C)CC1 (centres unmarked) [Example 43, N-allyl-N′-[4-(3-chloro-benzyl)-4-dimethylamino-cyclohexyl]-N-methyl-succinamide] | 96 | 98 | – | –
5 | Cc1cccc(CC2(N(C)C)CCC(NC(=O)CCC(=O)N3CCN(c4ccc(Cl)cc4)CC3)CC2)c1 (centres unmarked) [Example 113, 4-[4-(4-chloro-phenyl)-piperazin-1-yl]-N-[4-dimethylamino-4-(3-methyl-benzyl)-cyclohexyl]-4-oxo-butyramide] | 94 | 97 | – | –
6 | Cc1cccc(CC2(N(C)C)CCC(NC(=O)CCC(=O)N(C)CCc3c[nH]c4ccccc34)CC2)c1 (centres unmarked) [Example 111, N-[4-dimethylamino-4-(3-methyl-benzyl)-cyclohexyl]-N′-[2-(1H-indol-3-yl)-ethyl]-N′-methyl-succinamide] | 97 | 96 | – | –
7 | Cc1cccc(CC2(N(C)C)CCC(NC(=O)CCC(=O)N(C)CC(=O)OCc3ccccc3)CC2)c1 (centres unmarked) [Example 22, ({3-[4-dimethylainino-4-(3-methyl-benzyl)-cyclohexylcarbamoyl]-propionyl}-methyl-amino)-acetic acid benzyl ester] | – | – | 93 | 95
8 | Cc1ccc(CC2(N(C)C)CCC(NC(=O)CCC(=O)N(C)CCNC(=O)C(F)(F)F)CC2)cc1 (centres unmarked) [Example 11, N-[4-dimethylamino-4-(4-methyl-benzyl)-cyclohexyl]-N′-methyl-N′-[2-(2,2,2-trifluoro-acetylamino)-ethyl]-succinamide] | 77 | 92 | – | –
9 | CN(C)C1(Cc2ccc(Cl)cc2)CCC(NC(=O)CCC(=O)NCc2cccc3ccccc23)CC1 (centres unmarked) [Example 34, N-[4-(4-chloro-benzyl)-4-dimethylamino-cyclohexyl]-N′-naphthalen-1-ylmethyl-succinamide] | 87 | 97 | – | –
10 | Cc1ccc(CC2(N(C)C)CCC(NC(=O)CCC(=O)NC(C)C(=O)OC(C)(C)C)CC2)cc1 (centres unmarked) [Example 61, 2-{3-[4-dimethylamino-4-(4-methyl-benzyl)-cyclohexylcarbamoyl]-propionylamino}-propanoic acid-tert-butylester] | 93 | 92 | – | –
11 | CCOC(=O)C(C)NC(=O)CCC(=O)NC1CCC(Cc2cccc(Cl)c2)(N(C)C)CC1 (centres unmarked) [Example 30, 2-{3-[4-(3-chloro-benzyl)-4-dimethylamino-cyclohexylcarbamoyl]-propionylamino}-propanoic acid ethylester] | 96 | 93 | – | –
12 | Cc1ccc(CC2(N(C)C)CCC(NC(=O)CCC(=O)NCC3CCCO3)CC2)cc1 (centres unmarked) [Example 45, N-[4-dimethylamino-4-(4-methyl-benzyl)-cyclohexyl]-N′-(tetrahydro-furan-2-ylmethyl)-succinamide] | 77 | 92 | – | –
13 | COc1ccccc1N1CCN(C(=O)CCC(=O)NC2CCC(Cc3ccc(Cl)cc3)(N(C)C)CC2)CC1 (centres unmarked) [Example 47, N-[4-(4-chloro-benzyl)-4-dimethylamino-cyclohexyl]-4-[4-(2-methoxy-phenyl)-piperazin-1-yl]-4-oxo-butyramide] | 73 | 93 | – | –
14 | CCOC(=O)CCNC(=O)CCC(=O)NC1CCC(Cc2ccc(C)cc2)(N(C)C)CC1 (centres unmarked) [Example 9, 3-{3-[4-dimethylamino-4-(4-methyl-benzyl)-cyclohexylcarbamoyl]-propionylamino}-propanoic acid ethylester] | 91 | 93 | – | –
15 | CC(=O)c1ccc(N2CCN(C(=O)CCC(=O)NC3CCC(Cc4ccc(C)cc4)(N(C)C)CC3)CC2)cc1 (centres unmarked) [Example 27, 4-[4-(4-Acetyl-phenyl)-piperazin-1-yl]-N-[4-dimethylamino-4-(4-methyl-benzyl)-cyclohexyl]-4-oxo-butyramide] | 92 | 95 | – | –
16 | Cc1cccc(N2CCN(C(=O)CCCC(=O)NC3CCC(Cc4ccccc4)(N(C)C)CC3)CC2)c1C (centres unmarked) [Example 56, 5-[4-(2,3-dimethyl-phenyl)-piperazin-1-yl]-5-oxo-valeric acid (4-benzyl-4-dimethylamino-cyclohexyl)-amide] | 96 | 95 | – | –
17 | Cc1ccc(CC2(N(C)C)CCC(NC(=O)CCC(=O)NC(C)C(C)C)CC2)cc1 (centres unmarked) [Example 105, N-[4-dimethylamino-4-(4-methyl-benzyl)-cyclohexyl]-N′-(1,2-dimethyl-propyl)-succinamide] | 90 | 92 | – | –
18 | COC(=O)C(Cc1ccc(Cl)cc1)NC(=O)CCC(=O)NC1CCC(Cc2ccc(C)cc2)(N(C)C)CC1 (centres unmarked) [Example 32, 3-(4-chloro-phenyl)-2-{3-[4-dimethylamino-4-(4-methyl-benzyl)-cyclohexylcarbamoyl]-propionylamino}-propanoic acid methylester] | 97 | 99 | – | –
19 | COCCCNC(=O)CCC(=O)NC1CCC(Cc2ccc(Cl)cc2)(N(C)C)CC1 (centres unmarked) [Example 26, N-[4-(4-chloro-benzyl)-4-dimethylamino-cyclohexyl]-N′-(3-methoxy-propyl)-succinamide] | 79 | 93 | – | –
20 | Cc1ccc(CC2(N(C)C)CCC(NC(=O)CCC(=O)N3CCC(CNC(=O)C(F)(F)F)CC3)CC2)cc1 (centres unmarked) [Example 51, N-[4-dimethylamino-4-(4-methyl-benzyl)-cyclohexyl]-4-oxo-4-{4-[(2,2,2-trifluoro-acetylamino)-methyl]-piperidin-1-yl}-butyramide] | 77 | 92 | – | –
21 | COc1ccc2[nH]cc(CCNC(=O)CCC(=O)NC3CCC(Cc4cccc(C)c4)(N(C)C)CC3)c2c1 (centres unmarked) [Example 139, N-[4-dimethylamino-4-(3-methyl-benzyl)-cyclohexyl]-N′-(2-(5-methoxy-1H-indol-3-yl)-ethyl]-succinamide] | 95 | 93 | – | –
22 | C=CCOc1ccc(CN2CCN(C(=O)CCC(=O)NC3CCC(Cc4cccc(C)c4)(N(C)C)CC3)CC2)cc1 (centres unmarked) [Example 89, 4-[4-(4-allyloxy-benzyl)-piperazin-1-yl]-N-[4-dimethylamino-4-(3-methyl-benzyl)-cyclohexyl]-4-oxo-butyramide] | 98 | 94 | – | –
